Test results as given in patent US20230116196A1, “METHOD OF TREATING CNS DISORDERS WITH NEU[…] GABAERGIC COMPOUNDS” (priority 2017, published 2023).

Assays:
[1] = test system: DGGCs from S408/9A mice; experiment: Sustained effect on tonic current in DGGCs from S408/9A mice; format: cell-based, mouse; settings: 100 nM, washout
[2] = test system: GABAARs containing the α4 and β subunits, S408/9A mice; experiment: Biotinylation: cell surface levels of GABAARs in hippocampal slices from S408/9A mice; format: cell-based, mouse; settings: 100 nM, 20 min
Method: Consistent with the examples above, hippocampal slices from WT and S408/9A mice were treated for 20 min with 100 nM SGE-516 or vehicle (Con) and subjected to biotinylation followed by immunoblotting with β and α4 subunit antibodies. The ratio of surface/total (S/T) immunoreactivity was then normalized to levels seen in control (100%).

[3] = test system: GT1-7 cells; experiment: Immunoblot of β3 S408/9 phosphorylation in GT1-7 cells; format: cell-based; settings: 100 nM, 15 min
Method: GT1-7 cells that co-express mPRα and GABAARs were used to measure the level of phosphorylation at S408/9 position of β3 subunit. […] Expression of mPRα was confirmed using western blotting.
GT1-7 cells were treated with 100 nM AllO or P4 for 15 min and immunoblotted with antibodies specifically recognizing β3, actin, and […] β3 subunit (pS408/9). The ratio of pS408/9 β3 subunit immunoreactivity were then normalized to levels seen in vehicle treated to controls, n=6.

[4] = test system: GT1-7 cells; experiment: Patch-clamp of GABA-induced currents (IGABA) in GT1-7 cells; format: cell-based; settings: 100 nM in electrolyte, GABA EC20, 20 min time course
Method: Patch-clamp recordings were made from GT1-7 cells. The magnitude of the GABA-induced currents (IGABA) at EC20 agonists concentration were then measured, in the presence of control electrolyte or that supplemented with 100 nM ALLO, or 100 nM ORG OD 02-0 over a time course of 20 min.

| SMILES | tonic current in S408/9A mice [1] | increase of plasma membrane levels of GABAARs in slices from S408/9A mice [2] | S408/9 phosphorylation in GT1-7 cells [3] | GABA-evoked currents recorded from GT1-7 cells [4] |
| --- | --- | --- | --- | --- |
| C[C@@]1(O)CC[C@@]2(C)[C@H](CC[C@@H]3[C@@H]2CC[C@]2(C)[C@@H](C(=O)Cn4nccn4)CC[C@@H]32)C1 [SGE-516] | did not modify | not seen | – | – |
| CC(=O)[C@H]1CC[C@H]2[C@@H]3CC[C@H]4C[C@H](O)CC[C@]4(C)[C@H]3CC[C@]12C [ALLO, Allopregnanolone] | – | – | increase | sustained increases |
